Measured values: US4950647A, “T cell immunopotentiator” (Nucleic Acid Research Institute, priority 1988, dated 1990)
Read-outs that look alike come from different tables or passages of the source.

Key:
[1] = system: lymphocytes (peripheral blood mononuclear cells); experiment: Pokeweed mitogen (PWM) induced lymphocyte proliferation; format: cell-based, human; set-up: 3H-thymidine incorporation: unit not given here
Description: Peripheral blood mononuclear cells were isolated from heparinized peripheral blood of normal healthy donors as described in Sharma, B. and S. Gupta, "Antigen-specific primary cytotoxic T lymphocyte response in acquired immune deficiency syndrome (AIDS) and AIDS related complex", Clin. Exp. Immunol., 62:296, 1985. Briefly, blood was diluted 1:1 with Hanks balanced salt solution (HBSS). Peripheral blood mononuclear cells were separated on a Ficoll-Hypaque gradient. The peripheral blood mononuclear cells recovered from the interface were washed three times with HBSS and resuspended in RPMI-1640 containing 100 U/ml penicillin, 100 μg/ml streptomycin 2mM L-glutamine (GIBCO, Grand Island, N.Y.), and 10% heat-inactivated pooled A serum (Irvine Scientific, Irvine, Calif.), hereafter referred as complete medium (CM). […] T. Terasaki, "Effect of water soluble adjuvants on in vitro lymphocyte immunization", Cancer Res. 35:666, 1975. […] The culture were set up in quadruplicate and pulsed with [^3 H]-thymidine for 16 hr and the [^3 H] thymidine incorporation was determined.

[2] = system: human mixed lymphocyte culture; experiment: Mixed lymphocyte response / culture (alloantigens); format: cell-based
Description: (§1) Peripheral blood mononuclear cells were isolated from heparinized peripheral blood of normal healthy donors as described in Sharma, B. and S. Gupta, "Antigen-specific primary cytotoxic T lymphocyte response in acquired immune deficiency syndrome (AIDS) and AIDS related complex", Clin. Exp. Immunol., 62:296, 1985. Briefly, blood was diluted 1:1 with Hanks balanced salt solution (HBSS). Peripheral blood mononuclear cells were separated on a Ficoll-Hypaque gradient. The peripheral blood mononuclear cells recovered from the interface were washed three times with HBSS and resuspended in RPMI-1640 containing 100 U/ml penicillin, 100 μg/ml streptomycin 2mM L-glutamine (GIBCO, Grand Island, N.Y.), and 10% heat-inactivated pooled A serum (Irvine Scientific, Irvine, Calif.), hereafter referred as complete medium (CM).
Peripheral blood mononuclear cells (1×10^5 /0.2 ml/well) from donor-A were cultured together with different numbers of peripheral blood mononuclear cells ([…]) of peripheral blood mononuclear cells from the other donor for 96 hr as previously described above for the lymphocyte response to plant mitogens. Cultures were pulsed with [^3 H]-thymidinefor additional 16 hrs.

[3] = system: T lymphocytes (peripheral blood mononuclear cells); experiment: Cyclosporin A induced suppression of lymphocyte response to phytohemagglutinin / T cell mitogens, and its restoration; format: cell-based, human
Description: as §1
(§2) Cultures were pulsed for 16 hr and [^3 H]-thymidine incorporation was measured.
(§3) Peripheral blood mononuclear cells from normal donors were incubated with T cell mitogens in the presence and absence of this compound and then [^3 H-thymidine incorporation was measured.
Peripheral blood mononuclear cells were cultured with phytohemagglutinin in the presence of CsA (10 and 50 ng/0.2 ml) and 6-amino-(2-deoxy-α-D-erythro-pentofuranosyl)-imidazo[4,5,-C]pyridin- 4-one. Lymphocytes proliferation was determined by ^3 H-thymidine incorporation.

[4] = system: T lymphocytes (peripheral blood mononuclear cells); experiment: Cyclosporin A induced suppression of lymphocyte response to Concanavalin A, and its restoration; format: cell-based, human; details: FIG. 4; Con A
Description: Briefly, blood was diluted 1:1 with Hanks balanced salt solution (HBSS). Peripheral blood mononuclear cells were separated on a Ficoll-Hypaque gradient.
as §2, §3
Lymphocytes proliferation was determined by ^3 H-thymidine incorporation.

[5] = system: B target cells (PHA induced lymphoblasts of donor B); experiment: Generation of antigen-specific primary cytotoxic T lymphocytes, 51Cr release, target B; format: cell-based, human; details: for % Specific Cytotoxicity: Exp. 1, A + Bx, no compound 7
Description: Peripheral blood mononuclear cells from healthy donor A and C were cultured together with irradiated (3000 R) peripheral blood mononuclear cells from donor B and irradiated cells (SX) from B cells of the SB cell line, respectively, for five days. At the end of the incubation period, the cells were washed and resuspended in medium and then their cytotoxic activity was determined against the specific lymphoblast target cell B or S according to the procedure of Sharma and Gupta noted above.

[6] = Revankar et al. 1984; cited from earlier work

Nc1cc2c(ncn2[C@@H]2C[C@H](O)[C@@H](CO)O2)c(O)n1 [Test Compound, 6-amino-1-(2-deoxy-α-D-erythro-pentofuranosyl)imidazo[4,5-C]-pyridin-4-one]
maximum increase of Pokeweed mitogen induced proliferation [1]: 18% | activation at 6 µM ([1]; Homo sapiens, Lymphocyte, donor 1, control 53384, 0.006 mM, read-out: % Increase (+)): 18% | activation at 25 µM ([1]; Homo sapiens, Lymphocyte, donor 1, control 53384, 0.025 mM, read-out: % Increase (+)): 8% | activation at 6 µM ([1]; Homo sapiens, Lymphocyte, donor 1, second control 58731, 0.006 mM, read-out: % Increase (+)): 4% | activation at 6 µM ([1]; Homo sapiens, Lymphocyte, donor 4, 0.006 mM, read-out: % Increase (+)): 4% | inhibition at 50 µM ([1]; Homo sapiens, PBMC, donor 1, control 53384, 0.05 mM, read-out: % Decrease (-)): 14% | inhibition at 25 µM ([1]; Homo sapiens, PBMC, donor 1, second control 58731, 0.025 mM, read-out: % Decrease (-)): 1% | inhibition at 50 µM ([1]; Homo sapiens, PBMC, donor 1, second control 58731, 0.05 mM, read-out: % Decrease (-)): 7% | inhibition at 25 µM ([1]; Homo sapiens, PBMC, donor 2, 0.025 mM, read-out: % Decrease (-)): 19% | inhibition at 50 µM ([1]; Homo sapiens, PBMC, donor 2, 0.05 mM, read-out: % Decrease (-)): 19% | inhibition at 125 µM ([1]; Homo sapiens, PBMC, donor 2, 0.125 mM, read-out: % Decrease (-)): 16% | inhibition at 6 µM ([1]; Homo sapiens, PBMC, donor 3, 0.006 mM, read-out: % Decrease (-)): 4% | inhibition at 25 µM ([1]; Homo sapiens, PBMC, donor 3, 0.025 mM, read-out: % Decrease (-)): 22% | inhibition at 200 µM ([1]; Homo sapiens, PBMC, donor 3, 0.2 mM, read-out: % Decrease (-)): 27% | inhibition at 25 µM ([1]; Homo sapiens, PBMC, donor 4, 0.025 mM, read-out: % Decrease (-)): 11% | inhibition at 50 µM ([1]; Homo sapiens, PBMC, donor 4, 0.05 mM, read-out: % Decrease (-)): 18% | 3H-thymidine incorporation ([1]; donor 1, control 53384, 0.006 mM): 62772 ± 2781 | 3H-thymidine incorporation ([1]; donor 1, control 53384, 0.025 mM): 56449 ± 2090 | 3H-thymidine incorporation ([1]; donor 1, control 53384, 0.05 mM): 45844 ± 1152 | 3H-thymidine incorporation ([1]; donor 1, second control 58731, 0.006 mM): 61100 ± 4701 | 3H-thymidine incorporation ([1]; donor 1, second control 58731, 0.025 mM): 57852 ± 3166 | 3H-thymidine incorporation ([1]; donor 1, second control 58731, 0.05 mM): 54840 ± 942 | 3H-thymidine incorporation ([1]; donor 2, 0.025 mM): 67565 ± 5857 | 3H-thymidine incorporation ([1]; donor 2, 0.05 mM): 67429 ± 3657 | 3H-thymidine incorporation ([1]; donor 2, 0.125 mM): 70197 ± 5940 | 3H-thymidine incorporation ([1]; donor 3, 0.006 mM): 40425 ± 1158 | 3H-thymidine incorporation ([1]; donor 3, 0.025 mM): 32818 ± 4806 | 3H-thymidine incorporation ([1]; donor 3, 0.2 mM): 30453 ± 2974 | 3H-thymidine incorporation ([1]; donor 4, 0.006 mM): 39090 ± 4853 | 3H-thymidine incorporation ([1]; donor 4, 0.025 mM): 33122 ± 4539 | 3H-thymidine incorporation ([1]; donor 4, 0.05 mM): 30500 ± 2132 | suppressive effect on Pokeweed mitogen induced proliferation ([1]; especially at relatively higher concentrations): generally a suppressive effect | immunopotentiating effect on Pokeweed mitogen induced proliferation ([1]; listed as 6-Amino-(2-deoxy-α-D-erythro-pentofuranosyl)-imidazo[4,5,-C]pyridin-4-one): did not have any significant immunopotentiating effect | effect on mixed lymphocyte response ([2]; 2-way mixed lymphocyte culture): markedly increased the mixed lymphocyte response in a dose dependent manner in most of the cases | maximal increase of mixed lymphocyte response ([2]; 2-way mixed lymphocyte culture): 91% | 3H-thymidine incorporation in MLC ([2]; A + B (0.5 × 10^5), 0.0125 mM): 14814 ± 929 CPM | 3H-thymidine incorporation in MLC ([2]; A + B (0.5 × 10^5), 0.025 mM): 18978 ± 1048 CPM | 3H-thymidine incorporation in MLC ([2]; A + B (0.5 × 10^5), 0.05 mM): 21399 ± 1759 CPM | 3H-thymidine incorporation in MLC ([2]; A + B (0.5 × 10^5), 0.2 mM): 22448 ± 1609 CPM | 3H-thymidine incorporation in MLC ([2]; A + B (0.5 × 10^5), 0.4 mM): 21593 ± 3007 CPM | 3H-thymidine incorporation in MLC ([2]; A + B (1 × 10^5), 0.0125 mM): 26858 ± 2392 CPM | 3H-thymidine incorporation in MLC ([2]; A + B (1 × 10^5), 0.025 mM): 21794 ± 7136 CPM | 3H-thymidine incorporation in MLC ([2]; A + B (1 × 10^5), 0.05 mM): 33532 ± 1732 CPM | 3H-thymidine incorporation in MLC ([2]; A + B (1 × 10^5), 0.2 mM): 30790 ± 1912 CPM | 3H-thymidine incorporation in MLC ([2]; A + B (1 × 10^5), 0.4 mM): 30261 ± 1835 CPM | 3H-thymidine incorporation in MLC ([2]; A + B (2 × 10^5), 0.0125 mM): 18608 ± 2511 CPM | 3H-thymidine incorporation in MLC ([2]; A + B (2 × 10^5), 0.025 mM): 23548 ± 4439 CPM | 3H-thymidine incorporation in MLC ([2]; A + B (2 × 10^5), 0.05 mM): 25299 ± 4479 CPM | 3H-thymidine incorporation in MLC ([2]; A + B (2 × 10^5), 0.2 mM): 29209 ± 2804 CPM | 3H-thymidine incorporation in MLC ([2]; A + B (2 × 10^5), 0.4 mM): 27940 ± 3679 CPM | 3H-thymidine incorporation in MLC ([2]; B + A (0.5 × 10^5), 0.0125 mM): 17045 ± 982 CPM | 3H-thymidine incorporation in MLC ([2]; B + A (0.5 × 10^5), 0.025 mM): 19538 ± 3053 CPM | 3H-thymidine incorporation in MLC ([2]; B + A (0.5 × 10^5), 0.05 mM): 20799 ± 1068 CPM | 3H-thymidine incorporation in MLC ([2]; B + A (0.5 × 10^5), 0.2 mM): 19346 ± 20799 CPM | 3H-thymidine incorporation in MLC ([2]; B + A (0.5 × 10^5), 0.4 mM): 13779 ± 3043 CPM | 3H-thymidine incorporation in MLC ([2]; B + A (2 × 10^5), 0.0125 mM): 18538 ± 1601 CPM | 3H-thymidine incorporation in MLC ([2]; B + A (2 × 10^5), 0.025 mM): 22129 ± 3893 CPM | 3H-thymidine incorporation in MLC ([2]; B + A (2 × 10^5), 0.05 mM): 24362 ± 2936 CPM | 3H-thymidine incorporation in MLC ([2]; B + A (2 × 10^5), 0.2 mM): 27737 ± 2105 CPM | 3H-thymidine incorporation in MLC ([2]; B + A (2 × 10^5), 0.4 mM): 28986 ± 1448 CPM | T cell proliferative response after addition of compound ([3]; FIG. 3, PHA + Cyclosporin A + compound): 43,000 CPM | reversal of cyclosporin mediated suppression (partial) ([3]; magnitude of cyclosporin mediated suppression higher, T cell mitogens): over 50% | restoration of lymphocyte proliferation ([3]; suppression about half of the total response, mitogen not stated): completely restored the lymphocyte proliferation | reconstitution of immune response ([3]; suppression low, lower concentration of cyclosporin, T cell mitogens): essentially complete | reversal of Cyclosporin A mediated suppression [4]: completely reversed | % Specific Cytotoxicity ([5]; compound (0.05)): 9% | % Specific Cytotoxicity ([5]; compound (0.1)): 22% | % Specific Cytotoxicity ([5]; compound (0.2)): 26% | cytotoxic T lymphocyte activity ([5]; specific fresh phytohemagglutinin induced lymphoblasts): increased | antitumor activity [6]: devoid of any useful antitumor activity
